Source: patent US7388008B2, “Lysine based compounds” (priority 2004, dated 2008)

Assay: Bioavailability: plasma concentration after single oral dose in rats
Format: in vivo, male Sprague-Dawley rats
Settings: for AUC: 50 mg/Kg po, rat plasma; for Delivery of parent drug (PL-100, PL-337) compared to non-aqueous formulations of PL-100 and PL-337: aqueous dosing; for Delivery of parent drug (PL-100, PL-337) compared to non-aqueous formulations of PL-100 and PL-337 / Administered compound detected in the blood samples: 50 mg/kg po, rat; for Administered compound detected in the blood samples: delivered as aqueous solutions
Protocol: To assess the extent of in vivo cleavage of the phosphate group from the putative compounds, PL-100, PL-462 (based on PL-100), PL-337 and PL-515 (based on PL-337) compounds were administered po (50 mg/kg) to male Sprague-Dawley rats and their plasma concentration measured at different time intervals post-administration. All test articles (PL-100, PL-462, PL-337 and PL-515) were prepared in different vehicle at the final concentration of 25 mg/mL. The vehicle composition is as follows: (1) 20% ethanol; 50% propylene glycol; 0.05% w/v Tween 20 and water (Mix); (2) PBS buffer (PBS). Test articles were administered to male Sprague-Dawley rats at a single oral dose of 50 mg/kg. Each article was tested in three rats. Blood samples (0.2–0.3 mL) were collected at the post-dose time of 10, 20, 40, 60, 120, 180 and 360 minutes. The harvested blood was centrifuged to isolate plasma. The resulting plasma was separated and stored at −70° C. Plasma samples together with standards and quality control samples were treated to precipitate proteins, then analyzed by HPLC-MS, for the presence of PL-462, PL-100, PL-515 and PL-337.

[1] = vehicle Mix (20% ethanol; 50% propylene glycol; 0.05% w/v Tween 20 and water)
[2] = vehicle PBS, parent drug (PL-100 or PL-337) detected

Row | AUC [1] [μg/hr * ml] | AUC [2] [μg/hr * ml] | Delivery of parent drug (PL-100, PL-337) compared to non-aqueous formulations of PL-100 and PL-337 | Administered compound detected in the blood samples | SMILES
1 | 0.675 | – | – | – | COC(=O)N[C@H](C(=O)NCCCC[C@@H](CO)N(CC(C)C)S(=O)(=O)c1ccc(N)cc1)C(c1ccccc1)c1ccccc1 [PL-100, (1S,5S)-(1-{5-[(4-amino-benzenesulfonyl)-isobutyl-amino]-6-hydroxy-hexylcarbamoyl}-2,2-diphenyl-ethyl)-carbamic acid methyl ester]
2 | – | 1.075 | equivalent to slightly superior | None | COC(=O)N[C@H](C(=O)NCCCC[C@@H](COP(=O)(O)O)N(CC(C)C)S(=O)(=O)c1ccc(N)c(F)c1)C(c1ccccc1)c1ccccc1 [PL-515, (1S,5S)-(1-{5-[(4-amino-3-fluoro-benzenesulfonyl)-isobutyl-amino]-6-phosphonooxy-hexylcarbamoyl}-2,2-diphenyl-ethyl)-carbamic acid methyl ester]
3 | – | 0.816 | equivalent to slightly superior | None | COC(=O)N[C@H](C(=O)NCCCC[C@@H](COP(=O)(O)O)N(CC(C)C)S(=O)(=O)c1ccc(N)cc1)C(c1ccccc1)c1ccccc1.[Na] [PL-462, (1S,5S)-(1-{5-[(4-amino-benzenesulfonyl)-isobutyl-amino]-6-phosphonooxy-hexylcarbamoyl}-2,2-diphenyl-ethyl)-carbamic acid methyl ester sodium salt]
4 | 1.180 | – | – | – | COC(=O)N[C@H](C(=O)NCCCC[C@@H](CO)N(CC(C)C)S(=O)(=O)c1ccc(N)c(F)c1)C(c1ccccc1)c1ccccc1 [PL-337, (1-{5-[(4-amino-3-fluoro-benzenesulfonyl)-isobutyl-amino]-6-hydroxy-hexylcarbamoyl}-2,2-diphenyl-ethyl)-carbamic acid methyl ester]
